ChEMBL document CHEMBL3351924, “Detailed analysis and follow-up studies of a high-throughput screening for indoleamine 2,3-dioxygenase 1 (IDO1) inhibitors” (Eur J Med Chem, 2014)
Values after ≈ are worked out from the molar mass of the structure shown.

Assays:
[1] = target: Tryptophan 2,3-dioxygenase (Mus musculus, UniProt P48776); assay: Inhibition of mouse TDO expressed in mouse P815B cells using L-tryptophan substrate incubated for 24 hrs by HPLC based cellular assay; format: cell-based; conditions: p815b
Tryptophan 2,3-dioxygenase, sequence (P48776 whole entry): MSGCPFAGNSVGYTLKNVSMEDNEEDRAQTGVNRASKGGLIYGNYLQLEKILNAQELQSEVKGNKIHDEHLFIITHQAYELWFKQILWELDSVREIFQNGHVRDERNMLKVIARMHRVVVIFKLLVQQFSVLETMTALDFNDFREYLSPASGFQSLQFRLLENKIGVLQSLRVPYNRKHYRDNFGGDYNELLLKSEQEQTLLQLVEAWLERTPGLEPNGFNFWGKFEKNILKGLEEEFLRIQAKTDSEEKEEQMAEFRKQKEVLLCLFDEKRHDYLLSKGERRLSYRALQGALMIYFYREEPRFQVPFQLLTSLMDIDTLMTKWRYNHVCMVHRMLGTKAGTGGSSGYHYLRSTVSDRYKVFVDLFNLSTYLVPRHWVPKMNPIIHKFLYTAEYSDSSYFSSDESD

[2] = target: T1, Indoleamine 2,3-dioxygenase 1 (Homo sapiens, UniProt P14902); assay: Inhibition of IDO1 (unknown origin) using L-tryptophan substrate incubated for 60 mins by HPLC
T1 sequence (P14902 whole entry): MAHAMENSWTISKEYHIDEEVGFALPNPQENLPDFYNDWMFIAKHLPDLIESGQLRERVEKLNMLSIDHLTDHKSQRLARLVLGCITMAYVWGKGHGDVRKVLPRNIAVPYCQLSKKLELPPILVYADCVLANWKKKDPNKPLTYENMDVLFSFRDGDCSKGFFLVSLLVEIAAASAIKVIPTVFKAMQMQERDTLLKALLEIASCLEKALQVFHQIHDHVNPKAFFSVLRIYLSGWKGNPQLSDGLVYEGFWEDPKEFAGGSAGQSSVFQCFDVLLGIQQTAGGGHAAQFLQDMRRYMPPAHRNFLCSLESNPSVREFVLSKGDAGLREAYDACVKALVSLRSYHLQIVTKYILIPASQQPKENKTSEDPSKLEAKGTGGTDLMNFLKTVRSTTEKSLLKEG

[3] = target: Indoleamine 2,3-dioxygenase 1 (Mus musculus, UniProt P28776); assay: Inhibition of mouse IDO1 expressed in mouse P815B cells using L-tryptophan substrate incubated for 18 hrs by HPLC based cellular assay; format: cell-based
Indoleamine 2,3-dioxygenase 1 (Mus musculus, UniProt P28776), sequence (P28776 whole entry): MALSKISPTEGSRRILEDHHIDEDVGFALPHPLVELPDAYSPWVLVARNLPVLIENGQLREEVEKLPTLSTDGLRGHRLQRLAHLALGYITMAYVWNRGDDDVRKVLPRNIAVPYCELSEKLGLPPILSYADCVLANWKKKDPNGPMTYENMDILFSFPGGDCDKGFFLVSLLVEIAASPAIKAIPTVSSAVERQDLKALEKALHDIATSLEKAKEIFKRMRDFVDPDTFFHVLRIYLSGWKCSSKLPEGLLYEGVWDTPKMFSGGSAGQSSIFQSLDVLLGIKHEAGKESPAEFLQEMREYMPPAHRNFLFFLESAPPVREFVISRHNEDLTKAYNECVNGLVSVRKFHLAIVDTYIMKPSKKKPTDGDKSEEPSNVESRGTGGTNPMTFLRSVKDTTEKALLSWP

[4] = target: T1, Indoleamine 2,3-dioxygenase 1; assay: Inhibition of IDO1 (unknown origin) using L-tryptophan substrate incubated for 60 mins in presence of 5 mM GSH by HPLC
[5] = target: T1, Indoleamine 2,3-dioxygenase 1; assay: Inhibition of IDO1 (unknown origin) using L-tryptophan substrate incubated for 60 mins in presence of 0.01% Triton-X by HPLC
[6] = Cytotoxicity against mouse P815B cells after 24 hrs by MTS/PMS assay
[7] = Solubility of the compound in pH 6.5 phosphate buffer containing 5% DMSO
[8] = phosphate buffer containing 5% DMSO

CCOC(=O)c1ccc(-n2sccc2=O)cc1
IC50 [1]: Not Active | IC50 ([2]; read-out: IC50): 15 µM | IC50 ([3]; p815b): Not Active | IC50 [4]: 100 µM | IC50 ([5]; read-out: IC50): 11 µM | CC50 at 24 h ([6]; P815B cells): 10 µM | solubility [7, 8]: 500 µM (≈ 125 µg/mL)

CC(=O)N1CCN(c2ccc(OCC3COC(Cn4ccnc4)(c4ccc(Cl)cc4Cl)O3)cc2)CC1 (stereo not given) [KETOCONAZOLE]
IC50 [1]: Not Active | IC50 ([2]; read-out: IC50): 32 µM | IC50 ([3]; p815b): Not Active | IC50 ([5]; read-out: IC50): 25 µM | CC50 at 24 h ([6]; P815B cells): 25 µM | solubility [7, 8]: 100 µM (≈ 53.1 µg/mL)

Clc1ccc(C(Cn2ccnc2)OCc2c(Cl)cccc2Cl)c(Cl)c1 (stereo not given) [ISOCONAZOLE]
IC50 [1]: Not Active | IC50 ([2]; read-out: IC50): 23 µM | IC50 ([3]; p815b): Not Active | CC50 at 24 h ([6]; P815B cells): 10 µM | solubility [7, 8]: 50 µM (≈ 20.8 µg/mL)

Clc1ccc(C(Cn2ccnc2)OCc2ccsc2Cl)c(Cl)c1 (stereo not given) [TIOCONAZOLE]
IC50 [2]: Not Active | solubility ([7]; buffer): 10 µM (≈ 3.88 µg/mL)

Nc1n[nH]c2cc(O)[nH]c(=O)c12
IC50 [2]: Not Active | solubility [7, 8]: 1000 µM (≈ 166 µg/mL)

CN(C)/C=N/C(=S)Nc1cccc(F)c1
solubility [7, 8]: 1000 µM (≈ 225 µg/mL)

CC(C)(C)S(=O)(=O)/C(C#N)=C/c1ccsc1
solubility [7, 8]: 1000 µM (≈ 255 µg/mL)

OC(Cn1ccnc1)c1ccc(Cl)cc1 (stereo not given)
IC50 [5]: Not Active | solubility [7, 8]: > 1000 µM

Clc1ccc(C(Cn2ccnc2)OCc2csc3c(Cl)cccc23)c(Cl)c1 (stereo not given) [SERTACONAZOLE]
IC50 [1]: Not Active | IC50 ([2]; read-out: IC50): 8.4 µM | IC50 ([3]; p815b): Not Active | CC50 at 24 h ([6]; P815B cells): 10 µM | solubility [7, 8]: 10 µM (≈ 4.38 µg/mL)

COC(=O)C1=C(C)NC(C)=C(C(=O)OCC(C)C)C1c1ccccc1[N+](=O)[O-] (stereo not given) [NISOLDIPINE]
IC50 [2]: Not Active | solubility [7, 8]: 50 µM (≈ 19.4 µg/mL)

OC(Cc1c[nH]nn1)c1ccc(Cl)cc1Cl (stereo not given)
IC50 [5]: Not Active | solubility [7, 8]: > 1000 µM

Cc1cc(N/C=C(\C#N)S(=O)(=O)c2ccccc2Cl)nc(C)n1
solubility [7, 8]: 250 µM (≈ 87.2 µg/mL)

COC(Cn1ccnc1)c1ccc(Cl)cc1Cl (stereo not given)
IC50 ([5]; read-out: IC50): 140 µM | solubility [7, 8]: > 1000 µM

Clc1ccc(COC(Cn2ccnc2)c2ccc(Cl)cc2Cl)cc1 (stereo not given) [ECONAZOLE]
IC50 [1]: Not Active | IC50 [2]: 8.1 µM | IC50 ([3]; p815b): Not Active | CC50 at 24 h ([6]; P815B cells): 10 µM | solubility [7, 8]: 10 µM (≈ 3.82 µg/mL)

CNC(=S)N/N=C/c1ccc(OC)c(OC)c1
solubility [7, 8]: 1000 µM (≈ 253 µg/mL)

NNCCc1ccccc1 [PHENELZINE]
IC50 [1]: Not Active | IC50 ([2]; read-out: IC50): 14 µM | IC50 ([3]; p815b): Not Active | CC50 at 24 h ([6]; p815b): > 25 µM | solubility ([7]; buffer): 1000 µM (≈ 136 µg/mL)

Oc1nc(=S)ccn1-c1nc(-c2ccccc2)sc1-c1ccccc1
solubility [7, 8]: 50 µM (≈ 18.2 µg/mL)

C=CCOC(Cn1ccnc1)c1ccc(Cl)cc1Cl (stereo not given) [ENILCONAZOLE]
IC50 [1]: Not Active | IC50 ([2]; read-out: IC50): 23 µM | IC50 ([3]; p815b): Not Active | CC50 at 24 h ([6]; P815B cells): > 25 µM | solubility [7, 8]: 10 µM (≈ 2.97 µg/mL)

Cn1cc(Cl)c(/C=C(\C#N)S(=O)(=O)C(C)(C)C)n1
solubility [7, 8]: 1000 µM (≈ 288 µg/mL)

N=C(N)SCc1nc(-c2ccc(Cl)cc2)no1
IC50 [1]: Not Active | IC50 ([2]; read-out: IC50): 0.89 µM | IC50 ([3]; read-out: IC50): 2.1 µM | IC50 ([5]; read-out: IC50): 1.2 µM | CC50 at 24 h ([6]; P815B cells): 10 µM | solubility [7, 8]: 1000 µM (≈ 269 µg/mL)

COCCCOc1ccnc(C[S+]([O-])c2nc3ccccc3[nH]2)c1C (stereo not given) [RABEPRAZOLE]
IC50 [2]: Not Active | solubility [7, 8]: 1000 µM (≈ 359 µg/mL)

OC(Cn1ccnc1)c1cccc(Cl)c1 (stereo not given)
IC50 [5]: Not Active | solubility [7, 8]: > 1000 µM

c1ccc(-n2ccnc2)cc1
IC50 [5]: Not Active | solubility [7, 8]: > 1000 µM

Clc1ccc(-n2ccnc2)c(Cl)c1
IC50 [5]: Not Active | solubility [7, 8]: > 1000 µM

Clc1ccc(COC(Cn2ccnc2)c2ccc(Cl)cc2Cl)c(Cl)c1 (stereo not given) [MICONAZOLE]
IC50 [1]: Not Active | IC50 ([2]; read-out: IC50): 6.7 µM | IC50 ([3]; p815b): Not Active | IC50 ([5]; read-out: IC50): 3.8 µM | CC50 at 24 h ([6]; p815b): 10 µM | solubility [7, 8]: 10 µM (≈ 4.16 µg/mL)

N#CC(C(=O)Nc1cccc(C(F)(F)F)c1)C(=S)Nc1ccccc1Cl (stereo not given)
IC50 [1]: Not Active | IC50 ([2]; read-out: IC50): 7 µM | IC50 ([3]; p815b): Not Active | IC50 [4]: 71 µM | IC50 ([5]; read-out: IC50): 6.3 µM | CC50 at 24 h ([6]; P815B cells): > 25 µM | solubility [7, 8]: 1000 µM (≈ 398 µg/mL)

Cc1cc(NS(=O)(=O)c2ccc(Cl)s2)no1
solubility [7, 8]: 1000 µM (≈ 279 µg/mL)

CC(C)(N)Cc1ccccc1 [PHENTERMINE]
solubility [7, 8]: 1000 µM (≈ 149 µg/mL)

Clc1ccc(C(Cn2ccnc2)OCc2cccnc2)c(Cl)c1 (stereo not given)
IC50 ([5]; read-out: IC50): 84 µM | solubility [7, 8]: > 1000 µM

OC(Cn1ccnc1)c1ccc(Cl)c(Cl)c1 (stereo not given)
IC50 ([5]; read-out: IC50): 830 µM | solubility [7, 8]: > 1000 µM

Cc1nn(-c2ccccc2)nc1CNC(=O)c1ccc2nsnc2c1
solubility [7, 8]: 50 µM (≈ 17.5 µg/mL)

Sc1ncnc2nc[nH]c12 [MERCAPTOPURINE ANHYDROUS]
IC50 [2]: Not Active | solubility [7, 8]: 1000 µM (≈ 152 µg/mL)

Clc1ccc(CCC(Cn2ccnc2)Sc2c(Cl)cccc2Cl)cc1 (stereo not given) [BUTOCONAZOLE]
IC50 [2]: Not Active | solubility [7, 8]: 10 µM (≈ 4.12 µg/mL)

NC(=S)N/N=C/c1c(F)cccc1Cl
solubility [7, 8]: 250 µM (≈ 57.9 µg/mL)

Oc1ccc(Br)cc1/C=N/c1ccc2[nH]nnc2c1
IC50 [2]: Not Active | solubility [7, 8]: 10 µM (≈ 3.17 µg/mL)

OC(Cn1ccnc1)c1c(Cl)cccc1Cl (stereo not given)
IC50 [5]: Not Active | solubility [7, 8]: > 1000 µM

N#C/C(=C\c1c[nH]cn1)S(=O)(=O)c1cccs1
solubility [7, 8]: 1000 µM (≈ 265 µg/mL)
